Laboratory results as given in patent US20230086703A1, “N-(4-(5-chloropyridin-3-yl)phenyl)-2-(2-(cyclopropanesulfonamido)pyrimidin-4-yl) butanamide derivatives and related compounds as human CTPS1 inhibitors for the treatment of proliferative diseases” (Step Pharma S.A.S., priority 2019, published 2023).
pIC50: −log10 of the molar value. Where “and” joins values, the source holds several entries; their conditions need not be identical. Identical values can stand only once. Like-named read-outs stand apart in the source and are kept apart here.

Molecular target: T1, human CTPS1 (Homo sapiens, UniProt P17812)
T1 construct: FLAG (with GG linker); His8 (with GG linker); purchased Proteros biostructures GmbH
T1 sequence (P17812 1-591): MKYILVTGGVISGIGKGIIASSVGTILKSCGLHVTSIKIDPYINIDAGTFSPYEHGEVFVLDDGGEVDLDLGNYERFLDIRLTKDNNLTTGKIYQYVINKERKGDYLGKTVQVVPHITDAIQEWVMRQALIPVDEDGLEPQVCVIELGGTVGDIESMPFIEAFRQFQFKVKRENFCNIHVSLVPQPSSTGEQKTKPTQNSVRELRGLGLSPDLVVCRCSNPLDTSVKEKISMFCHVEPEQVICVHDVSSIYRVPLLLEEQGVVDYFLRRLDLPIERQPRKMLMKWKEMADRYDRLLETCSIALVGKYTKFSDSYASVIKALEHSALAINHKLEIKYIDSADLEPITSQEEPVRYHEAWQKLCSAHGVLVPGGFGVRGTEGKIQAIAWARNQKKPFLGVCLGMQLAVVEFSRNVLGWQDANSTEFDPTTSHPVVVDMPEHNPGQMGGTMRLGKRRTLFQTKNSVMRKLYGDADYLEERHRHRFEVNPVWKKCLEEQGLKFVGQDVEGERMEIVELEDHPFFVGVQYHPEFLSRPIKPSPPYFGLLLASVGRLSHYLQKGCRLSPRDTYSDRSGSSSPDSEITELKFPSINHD
Assay: Human CTPS1 enzyme inhibition, ADP-Glo Max assay
Assay type: biochemical
How it was run: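 Enzyme preincubated with compound for 10 min at 25 °C in 50 mM Tris pH 8.0, 10 mM MgCl2, 0.01% Tween-20, 2 mM L-cysteine. ATP-to-ADP conversion detected by ADP-Glo Max luminescence after 60 min depletion and 60 min development steps. Percentage inhibition calculated per concentration.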

[1] = ADP-Glo Max assay, Table 10, read-out: Human CTPS1 Enzyme Inhibition, IC50 grouped by potency range (CTPS1)
[2] = Table 12, ADP-Glo Max assay, read-out: CTPS1 (Human CTPS1 Enzyme Inhibition data grouped by potency range)

| SMILES | pIC50 [1] | further results |
| --- | --- | --- |
| Cc1cc(NC(=O)C(C)(C)c2csc(NS(=O)(=O)C3CC3)n2)ccc1-c1cncc(C#N)c1 [T322, N-(4-(5-cyanopyridin-3-yl)-3-methylphenyl)-2-(2-(cyclopropanesulfonamido)thiazol-4-yl)-2-methylpropanamide] | 6.00 to 7.00 |  |
| CC(C)(C(=O)Nc1ccc(-c2cncc(C#N)n2)cn1)c1csc(NS(=O)(=O)C2CC2)n1 [T263, N-(5-(6-cyanopyrazin-2-yl)pyridin-2-yl)-2-(2-(cyclopropanesulfonamido)thiazol-4-yl)-2-methylpropanamide] | 5.00 to 6.00 |  |
| O=C(Nc1ccc(-c2cccnc2)cc1)C(=O)c1csc(NS(=O)(=O)C2CC2)n1 [T104, 2-(2-(cyclopropanesulfonamido)thiazol-4-yl)-2-oxo-N-(4-(pyridin-3-yl)phenyl)acetamide] | 6.00 to 7.00 |  |
| CC(C)(C(=O)Nc1ccc(-c2cccnc2)nc1)c1csc(NS(=O)(=O)C2CC2)n1 [T116, N-([2,3′-bipyridin]-5-yl)-2-(2-(cyclopropanesulfonamido)thiazol-4-yl)-2-methylpropanamide] | 6.00 to 7.00 |  |
| CC(C)(C(=O)Nc1ccc(-c2ccnnc2)cc1)c1csc(NS(=O)(=O)C2CC2)n1 [T31, 2-(2-(cyclopropanesulfonamido)thiazol-4-yl)-2-methyl-N-(4-(pyridazin-4-yl)phenyl)propanamide] | 5.00 to 6.00 |  |
| CCOc1cnc(-c2ccc(NC(CC)c3ccnc(NS(=O)(=O)C4CC4)n3)cc2)cn1 (stereo not drawn) [P261] |  | pIC50 [2]: 6.00 to 7.00 |
| CC(C)(C(=O)Nc1ccc(-c2cncc(Cl)c2)c(C(F)(F)F)c1)c1csc(NS(=O)(=O)C2CC2)n1 [T370, N-(4-(5-chloropyridin-3-yl)-3-(trifluoromethyl)phenyl)-2-(2-(cyclopropanesulfonamido)thiazol-4-yl)-2-methylpropanamide] | 5.00 to 6.00 |  |
| CC(C)(C(=O)Nc1ccc(-c2cncc(OCC(F)(F)F)c2)cc1F)c1csc(NS(=O)(=O)C2CC2)n1 [T132, 2-(2-(cyclopropanesulfonamido)thiazol-4-yl)-N-(2-fluoro-4-(5-(2,2,2-trifluoroethoxy)pyridin-3-yl)phenyl)-2-methylpropanamide] | 6.00 to 7.00 |  |
| CC(C)(O)c1cccc(-c2ccc(NC(=O)C(C)(C)c3csc(NS(=O)(=O)C4CC4)n3)nc2)c1 [T237, 2-(2-(cyclopropanesulfonamido)thiazol-4-yl)-N-(5-(3-(2-hydroxypropan-2-yl)phenyl)pyridin-2-yl)-2-methylpropanamide] | 5.00 to 6.00 |  |
| CC(C)CS(=O)(=O)Nc1nc(C(C)(C)C(=O)Nc2ccc(-c3cccnc3)cc2)cs1 [T311, 2-methyl-2-(2-((2-methylpropyl)sulfonamido)thiazol-4-yl)-N-(4-(pyridin-3-yl)phenyl)propanamide] | 5.00 to 6.00 |  |
| CCC(CC)(C(=O)Nc1ccc(-c2cncc(C#N)n2)cc1)c1csc(NS(=O)(=O)C2CC2)n1 [T161, N-(4-(6-cyanopyrazin-2-yl)phenyl)-2-(2-(cyclopropanesulfonamido)thiazol-4-yl)-2-ethylbutanamide] | 6.00 to 7.00 and 5.00 to 6.00 |  |
| CCOc1cc(NC(=O)C(C)(C)c2csc(NS(=O)(=O)C3CC3)n2)ccc1-c1cncc(C#N)c1 [T289, N-(4-(5-cyanopyridin-3-yl)-3-ethoxyphenyl)-2-(2-(cyclopropanesulfonamido)thiazol-4-yl)-2-methylpropanamide] | 6.00 to 7.00 |  |
| CC(C)(C(=O)Nc1ccc(-c2cccnc2)c(F)c1F)c1csc(NS(=O)(=O)C2CC2)n1 [T36, 2-(2-(cyclopropanesulfonamido)thiazol-4-yl)-N-(2,3-difluoro-4-(pyridin-3-yl)phenyl)-2-methylpropanamide] | 6.00 to 7.00 |  |
| O=C(Cc1csc(NS(=O)(=O)C2CC2)n1)Nc1ccc(-c2cccnc2)cn1 [T65, N-([3,3′-bipyridin]-6-yl)-2-(2-(cyclopropanesulfonamido)thiazol-4-yl)acetamide] | 6.00 to 7.00 |  |
| CC(C)(C(=O)Nc1ccc(-c2cncc(N3CCOCC3)n2)cc1)c1csc(NS(=O)(=O)C2CC2)n1 [T53, 2-(2-(cyclopropanesulfonamido)thiazol-4-yl)-2-methyl-N-(4-(6-morpholinopyrazin-2-yl)phenyl)propanamide] | 5.00 to 6.00 |  |
| CCOc1cncc(-c2ccc(NC(=O)C3(c4ccnc(NS(=O)(=O)CC)n4)CCN(C(=O)COC)CC3)nc2)n1 [P296] |  | pIC50 [2]: > 7.00 |
| CN(C(=O)C(C)(C)c1csc(NS(=O)(=O)C2CC2)n1)c1ccc(-c2cncc(C#N)c2)cc1 [T309, N-(4-(5-cyanopyridin-3-yl)phenyl)-2-(2-(cyclopropanesulfonamido)thiazol-4-yl)-N,2-dimethylpropanamide] | 5.00 to 6.00 |  |
| CN(C(=O)C(C)(C)c1csc(NS(=O)(=O)C2CC2)n1)c1ccc(-c2cncc(Cl)c2)cc1 [T318, N-(4-(5-chloropyridin-3-yl)phenyl)-2-(2-(cyclopropanesulfonamido)thiazol-4-yl)-N,2-dimethylpropanamide] | 5.00 to 6.00 |  |
| CCOc1cncc(-c2ccc(CNC(C)(C)c3csc(NS(=O)(=O)C4CC4)n3)c(F)c2)n1 [R94, N-(4-(2-((4-(6-Ethoxypyrazin-2-yl)-2-fluorobenzyl)amino)propan-2-yl)thiazol-2-yl)cyclopropanesulfonamide] |  | inhibition of CTPS1 enzyme (result in words) (ADP-Glo Max assay): activity is retained; pIC50 (Table 14, ADP-Glo Max assay, read-out: CTPS1 (Human CTPS1 Enzyme Inhibition data grouped by potency range)): > 7.00 |
| CCOc1cncc(-c2ccc(NC(=O)C(C)(C)c3csc(NS(=O)(=O)C(F)(F)F)n3)cc2)n1 [T296, N-(4-(6-ethoxypyrazin-2-yl)phenyl)-2-methyl-2-(2-((trifluoromethyl)sulfonamido)thiazol-4-yl)propanamide] | 6.00 to 7.00 |  |

More lines, main results first:

| pIC50 [1] | SMILES | further results |
| --- | --- | --- |
| > 7.00 | CC(C)(C(=O)Nc1ncc(-c2cncc(F)c2)cc1F)c1csc(NS(=O)(=O)C2CC2)n1 [T230, 2-(2-(cyclopropanesulfonamido)thiazol-4-yl)-N-(5,5′-difluoro-[3,3′-bipyridin]-6-yl)-2-methylpropanamide] |  |
| 6.00 to 7.00 | COc1cc(NC(=O)C(C)(C)c2csc(NS(=O)(=O)C3CC3)n2)ccc1-c1cnccn1 [T43, 2-(2-(cyclopropanesulfonamido)thiazol-4-yl)-N-(3-methoxy-4-(pyrazin-2-yl)phenyl)-2-methylpropanamide] |  |
| > 7.00 | COc1cncc(-c2ccc(NC(=O)C3(c4csc(NS(=O)(=O)C5CC5)n4)CCCC3)cc2)n1 [T130, 1-(2-(cyclopropanesulfonamido)thiazol-4-yl)-N-(4-(6-methoxypyrazin-2-yl)phenyl)cyclopentane-1-carboxamide] |  |
| > 7.00 | Cc1cncc(-c2ccc(NC(=O)C(C)(C)c3csc(NS(=O)(=O)C4CC4)n3)cc2)n1 [T266, 2-(2-(cyclopropanesulfonamido)thiazol-4-yl)-2-methyl-N-(4-(6-methylpyrazin-2-yl)phenyl)propanamide] |  |
| > 7.00 | CC(C)Oc1cncc(-c2ccc(NC(=O)C(C)(C)c3csc(NS(=O)(=O)C4CC4)n3)nc2)n1 [T143, 2-(2-(cyclopropanesulfonamido)thiazol-4-yl)-N-(5-(6-isopropoxypyrazin-2-yl)pyridin-2-yl)-2-methylpropanamide] |  |
| > 7.00 | CCC(CC)(C(=O)Nc1ccc(-c2cncc(C#N)c2)cc1)c1csc(NS(=O)(=O)C2CC2)n1 [T93, N-(4-(5-cyanopyridin-3-yl)phenyl)-2-(2-(cyclopropanesulfonamido)thiazol-4-yl)-2-ethylbutanamide] |  |
| > 7.00 | CCC(CC)(C(=O)Nc1ccc(-c2cncc(C(F)(F)F)n2)cn1)c1csc(NS(=O)(=O)C2CC2)n1 [T147, 2-(2-(cyclopropanesulfonamido)thiazol-4-yl)-2-ethyl-N-(5-(6-(trifluoromethyl)pyrazin-2-yl)pyridin-2-yl)butanamide] |  |
| > 7.00 | CCC(CC)(C(=O)Nc1ccc(-c2cncc(OC)n2)cc1)c1csc(NS(=O)(=O)C2CC2)n1 [T119, 2-(2-(cyclopropanesulfonamido)thiazol-4-yl)-2-ethyl-N-(4-(6-methoxypyrazin-2-yl)phenyl)butanamide] |  |
| > 7.00 | CC(C)(C(=O)Nc1ccc(-c2cncc(C#N)c2)cc1)c1csc(NS(=O)(=O)C2CC2)n1 [T47, N-(4-(5-cyanopyridin-3-yl)phenyl)-2-(2-(cyclopropanesulfonamido)thiazol-4-yl)-2-methylpropanamide] |  |
| > 7.00 | CCCOc1cncc(-c2ccc(NC(=O)C(C)(C)c3csc(NS(=O)(=O)C4CC4)n3)cc2)n1 [T55, 2-(2-(cyclopropanesulfonamido)thiazol-4-yl)-2-methyl-N-(4-(6-propoxypyrazin-2-yl)phenyl)propanamide] |  |
| > 7.00 | CC(C)(C(=O)Nc1ccc(-c2cncc(Cl)c2)cc1)c1csc(NS(=O)(=O)C2CC2)n1 [T252, N-(4-(5-chloropyridin-3-yl)phenyl)-2-(2-(cyclopropanesulfonamido)thiazol-4-yl)-2-methylpropanamide] |  |
| > 7.00 | CCOc1cncc(-c2cnc(NC(=O)C(C)(C)c3csc(NS(=O)(=O)C4CC4)n3)c(F)c2)n1 [T111, 2-(2-(cyclopropanesulfonamido)thiazol-4-yl)-N-(5-(6-ethoxypyrazin-2-yl)-3-fluoropyridin-2-yl)-2-methylpropanamide] |  |
